In patent US4355170A, “1-Substituted imidazole derivatives” (Ono Pharmaceutical Co., Ltd., priority 1978, dated 1982):
Where a name gives a salt, the structure may show the parent alone.

System: arachidonic acid-induced sudden deaths
Test: inhibitory effect on arachidonic acid-induced sudden deaths of rabbits
Assay type: in vivo
Settings: oral administration, 100 mg/kg animal body weight

| Compound | inhibitory effect on arachidonic acid-induced sudden deaths of rabbits |
| --- | --- |
| CC(CCCCCCn1ccnc1)C(=O)O.Cl (racemic) [1-[(7RS)-7-carboxyoctyl]imidazole hydrochloride] | inhibitory effect |
| Cl.O=C(O)CCCCC#CCn1ccnc1 [1-(7-carboxy-2-heptynyl)imidazole hydrochloride] | inhibitory effect |
| CC(C)(CCCCCCn1ccnc1)C(=O)O.Cl [1-(7-carboxy-7-methyloctyl)imidazole hydrochloride] | inhibitory effect |

System: not listed separately
Test: acute toxicity test, LD50 in mice
Settings: mouse, in vivo, iv

| Compound | LD50 [mg/kg] |
| --- | --- |
| CC(CCCCCn1ccnc1)C(C)C(=O)O.Cl (stereo not shown) [1-(7-carboxy-6-methyloctyl)imidazole hydrochloride] | 330 |

System: thromboxane synthetase
Test: inhibitory action for thromboxane synthetase (prior art compounds)
Assay type: biochemical
Settings: not completely satisfactory as a practical medication
Description: However, since their inhibitory action for thromboxane synthetase is weak, these compounds are hardly applicable as practically effective medicines.
On the other hand, N-(6-methoxycarbonylhexyl)imidazole has already been synthesized by P. Matthias et al, and publicly known [Monatsch Chem., 108(5), 1059(1977)].

| inhibitory effect on thromboxane synthetase compared with imidazole or 1-methylimidazole | Compound |
| --- | --- |
| stronger inhibitory effect | COC(=O)CCCCCCn1ccnc1 [N-(6-methoxycarbonylhexyl)imidazole] |

Target: T1, thromboxane synthetase from rabbit platelet microsomes (Oryctolagus cuniculus, UniProt G1TAZ9)
T1 construct: thromboxane synthetase from rabbit platelet microsomes; from tissue; host or cells: rabbit platelet microsomes
T1 sequence (G1TAZ9 1-530): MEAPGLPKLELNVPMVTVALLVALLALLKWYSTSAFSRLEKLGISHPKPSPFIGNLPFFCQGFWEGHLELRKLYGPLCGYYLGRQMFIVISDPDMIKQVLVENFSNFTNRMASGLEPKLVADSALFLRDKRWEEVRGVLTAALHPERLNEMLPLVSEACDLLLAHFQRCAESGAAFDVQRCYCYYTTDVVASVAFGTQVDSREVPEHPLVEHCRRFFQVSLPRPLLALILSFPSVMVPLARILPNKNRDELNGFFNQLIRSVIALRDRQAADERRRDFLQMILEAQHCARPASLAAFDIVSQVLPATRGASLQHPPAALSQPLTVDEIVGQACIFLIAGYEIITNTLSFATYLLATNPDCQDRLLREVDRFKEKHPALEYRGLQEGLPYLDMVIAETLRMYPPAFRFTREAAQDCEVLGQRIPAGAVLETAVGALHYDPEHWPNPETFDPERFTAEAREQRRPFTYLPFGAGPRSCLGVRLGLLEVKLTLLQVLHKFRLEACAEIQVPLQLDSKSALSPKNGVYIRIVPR
Test: inhibition of thromboxane synthetase from rabbit platelet microsomes (conversion of prostaglandin H2 into thromboxane B2)
Assay type: biochemical
Settings: not given

| Compound | IC50 [nM] |
| --- | --- |
| CCCCC(CCCn1ccnc1)C(=O)OCC (racemic) [1-[(4RS)-4-ethoxycarbonyloctyl]imidazole] | 130 |
| CC(CCCCCn1ccnc1)CC(=O)O (racemic) [1-[(6RS)-7-carboxy-6-methylheptyl]imidazole hydrochloride] | 48 |
| CC(CCCCCCn1ccnc1)C(=O)O.Cl (racemic) [1-[(7RS)-7-carboxyoctyl]imidazole hydrochloride] | 30 |
| CC(C)(CCCCCCC(=O)O)n1ccnc1 [1-(7-carboxy-1,1-dimethylheptyl)imidazole hydrochloride] | 90 |
| CC(C)(CCCCn1ccnc1)CCC(=O)O [1-(7-carboxy-5,5-dimethylheptyl)imidazole hydrochloride] | 71 |
| CCOC(=O)C(C)(C)CCCCCCn1ccnc1 [1-(7-ethoxycarbonyl-7-methyloctyl)imidazole] | 1000 |

Now from value to compound:

| IC50 [nM] | Compound |
| --- | --- |
| 200 | CCOC(=O)C(C)CCCCCCn1ccnc1 (racemic) [1-[(7RS)-7-ethoxycarbonyloctyl]imidazole] |
| 70 | O=C(O)/C=C/CCCCCn1ccnc1 [(E)-1-(7-carboxy-6-heptenyl)imidazole hydrochloride] |
| 2800 | CCOC(=O)/C=C/CCCCCn1ccnc1 [(E)-1-(7-ethoxycarbonyl-6-heptenyl)imidazole] |
| 56 | O=C(O)CCCC/C=C\Cn1ccnc1 [(Z)-1-(7-carboxy-2-heptenyl)imidazole hydrochloride] |
| 16 | O=C(O)/C=C\CCCCCn1ccnc1 [(Z)-1-(7-carboxy-6-heptenyl)imidazole hydrochloride] |
